Data reported in US11547655B2, “Use of an extract of the pericarp of Nephelium lappaceum for hydrating the skin and/or mucous membranes” (BASF Beauty Care Solutions France S.A.S., priority 2017, dated 2023).

Tested on: involucrin
Test: Involucrin synthesis in normal human keratinocytes, ELISA assay
Assay type: cell-based
Conditions: for MEAN (% involucrin detected): relative to the control, n=3; for stimulation of involucrin synthesis: at the concentrations tested, corresponding to those present in the cosmetic ingredient of example 4
Experimental: Normal, that is to say non-pathological, human keratinocytes were cultured in an MCDB153 medium (Dutscher France) containing 2% of fetal calf serum. After culture for 3 days at 37° C., the growth medium was replaced with MCDB153 medium containing various final concentrations of extract of N. lappaceum (by weight relative to the total volume of the medium) or without extract (Control) (table 1). The culture medium was replaced then solubilized in an extraction buffer. The amount of involucrin was quantified by ELISA assay. The results obtained are expressed as % relative to the control (n=3) (MEAN: mean; SD: Standard deviation).
Normal, that is to say non-pathological, human keratinocytes were cultured in an MCDB153 medium (Dutscher France) containing 2% of fetal calf serum. After culture for 3 days at 37° C., the growth medium was replaced with MCDB153 medium containing two final concentrations of ellagic acid or of geranin (w/v final medium) or without ellagic acid or without geranin (Control) (table 3). The culture medium was replaced. The amount of involucrin was quantified by ELISA assay. The results obtained are expressed as % relative to the control (n=3).

Compound	MEAN (% involucrin detected) (1.1 × 10^−4% (w/v medium)) [%]	MEAN (% involucrin detected) (1.9 × 10^−4% (w/v medium)) [%]	stimulation of involucrin synthesis	MEAN (% involucrin detected) (1.5 × 10^−3% (w/v medium)) [%]	MEAN (% involucrin detected) (9 × 10^−4% (w/v medium)) [%]
O=c1oc2c(O)c(O)cc3c(=O)oc4c(O)c(O)cc1c4c23 [Ellagic acid, ellagic acid]	68	32	Neither ellagic acid nor geranin stimulated involucrin synthesis		
O=C1O[C@H]2[C@@H]3OC(=O)c4cc(O)c(O)c(O)c4-c4c(cc(O)c(O)c4O)C(=O)OC[C@H]2O[C@@H](OC(=O)c2cc(O)c(O)c(O)c2)[C@@H]3OC(=O)c2cc(O)c(O)c3c2[C@@H]2C1=CC(=O)[C@](O)(O3)C2(O)O [Geranin, geranin]			Neither ellagic acid nor geranin stimulated involucrin synthesis	29	78
